Experimental data taken from paper PMC6153434, “Bystander Effects of Hypoxia-Activated Prodrugs: Agent-Based Modeling Using Three Dimensional Cell Cultures” (Frontiers in Pharmacology, 2018).

Key:
[1] = tested on: SiHa cells
[2] = Stability in culture medium at 37°C by LC-MS/MS

With `O=C(NCCO)c1cc(NO)cc([N+](=O)[O-])c1N(CCCl)CCCl` [Metabolite A, 2-(Bis(2-chloroethyl)amino)-5-(hydroxyamino)-N-(2-hydroxyethyl)-3-nitrobenzamide] the “cytotoxic potency relative to PR104H” value [1] was “lower cytotoxic potency” and the “half-life in culture medium relative to PR104H” value [2] was “fourfold longer half-life”.
